Consider 8 compounds from US10202372B2, “Trisubstituted pyrido[2,3-D]pyrimidines, methods for preparing same and therapeutic uses thereof” (CENTRE NATIONAL DE LA RECHERCHE SCIENTIFIQUE (C.N.R.S), priority 2012, dated 2019).

As a reminder, the melting point is the temperature, or range, at which the solid turns liquid. Usually IC50 stands for the point on the concentration scale where inhibition reaches its midpoint.

Structures can show the parent of a compound that is named as a salt.

One data set has as its target PI3Kα (Homo sapiens, UniProt P42336). Briefly: PI3Kα kinase activity, Adapta TR-FRET ADP detection. The note with it: purified p110α/p85α heterodimer, triplicate; read-out: Kinases IC50 PI3Kα. The data set is classed as biochemical. The protocol:
(§1) The activity of the PI3Kα kinase was evaluated by using a purified heterodimer (reference: PV4788 from Invitrogen) consisting of the α catalytic p110 subunit (PIK3CA) and the α regulation p85 subunit (PIK3R1). The assay of the kinase with the kit Adapta™ (reference: PV5099 from Invitrogen) is an enzymatic test based on the detection of ADP, produced during the reaction, by the fluorescence technique TR-FRET. It took place in a 384-well plate and was able to be divided into two phases: an enzymatic reaction phase, and a phase for detecting the ADP level.
(§2) During the enzymatic reaction phase, the following components were mixed in 10 μL of a same well: 2.5 μL of each dilution in series of inhibitors taken up in DMSO and then diluted to 1/25 in the reaction buffer (250 mM HEPES pH 7.5, 500 mM NaCl, 0.15 CHAPS, 5 mM EGTA, 15 mM MgCl2 and 1 mM DTT, ref.: PV5101 from Invitrogen), 2.5 μL of a solution containing PI3K at the optimum concentration (concentration defined according to the optimization step described in the operating procedure of the kit) diluted in the same reaction buffer, and finally, 5 μL of a solution containing 20 μM ATP and 100 μM PIP2 diluted in the reaction buffer. For each inhibitor concentration, the reaction was conducted in three copies (triplicate). The reaction was then incubated for 60 min at room temperature without any stirring in darkness.
(§3) During the phase for detecting ADP, 5 μL of a detection solution containing an anti-ADP antibody labeled with europium (6 nM), a tracer of the Alexa Fluor® 647 type coupled with ADP (30 nM), and EDTA (30 mM, for stopping the kinase reaction) were diluted in the dilution buffer (reference: PV3574 from Invitrogen). After 30 min of incubation at room temperature with stirring (40 rpm) in darkness, the 384-well plates were read in a plate reader Victor V configured for HTRF (Perkin Elmer). The excitation was produced at 340 nm and emission was measured at 665 nm and 615 nm. The inhibition curve was then plotted according to the emission ratio at 665 nm/615 nm versus the inhibitor concentration.
(§4) In order to obtain a linear response of the signal, a titration curve ATP-ADP, corresponding to the conversion % of ATP into ADP, was achieved by varying both of these species while keeping [ADP]+[ATP]=10 μM. The emission ratio at 665 nm/615 nm resulting from this (Y) was plotted versus the conversion % of ATP into ADP (X). The data of this curve were formatted according to a model with three hyperbolic parameters from the following equation: Y=C+A*(1−(X/(B+X))).
(§5) The software package GraphPad™ Prism® thus allows calculation of the parameters A, B and C. A conversion % corresponds to an emission ratio 665 nm/615 nm, this percentage is calculated by using the following equation: Conversion %=B*(C+A−Ratio)/(Ratio−C)
(§6) The three parameters A, B and C having been defined by the preceding equation, the conversion % was therefore able to be plotted versus the inhibitor concentration. The amount of inhibitor required for causing a 50% variation in the % conversion of ATP into ADP corresponds to the IC50 value of the inhibitor.

The next data set has as its target PI3Kδ (Homo sapiens, UniProt O00329). In words: PI3Kδ kinase activity, Adapta TR-FRET ADP detection. To be noted: purified p110δ/p85α heterodimer; read-out: Kinases IC50 PI3Kδ. The class given is biochemical. The protocol: as §1, §2, §3, §4, §5, §6
(§7) The activity of the kinase PI3Kγγ (PV4786 from Invitrogen) was evaluated on the p110γγ catalytic subunit (PI3KCG) and that of the kinase PI3Kδδ on the purified heterodimer (PV5273) respectively consisting of the δδ catalytic p110 subunit (PIK3CD) and the α regulation p85 subunit (PIK3R1) by following the same procedure.

For the next data set, the system named is CaCo2. Briefly: Toxicity test on cells, CaCo2. The class given is cell-based. The note with it: Homo sapiens, Caco-2; 48 hours of treatment, Hoechst nuclei staining. The protocol:
(§8) The compounds according to the invention were also tested on the cell lines HuH7, CaCo-2, HCT116, PC3, NCl, HacaT and Fibroblasts.
(§9) Operating Procedure: The cells were cultivated according to the ECACC recommendations. The toxicity test of the compounds on these cells was conducted as follows: 4×10^3 cells/well were sown in 96 wells. 24 hours after sowing the cells, the cells were exposed to increased concentrations of the compounds (0.1 μM-0.3 μM-0.9 μM-2.7 μM-8.3 μM-25 μM). After 48 hours of treatment, the cells were washed in PBS and bound in a cold ethanol/acetic acid (90/5) mixture for 20 minutes. Next, the nuclei were coloured with […] (Sigma). The acquisition of images and the analysis was carried out by means of a reader Cellomics ArrayScan VTI/HCS (Thermo Scientific).

The target of a further data set is PI3Kγ (Homo sapiens, UniProt P48736). Briefly: PI3Kγ kinase activity, Adapta TR-FRET ADP detection. The class given is biochemical. To be noted: p110γ catalytic subunit; read-out: Kinases IC50 PI3Kγ. The protocol:
as §1, §2, §3, §4, §5, §6, §7
(In general: TR-FRET usually uses a lanthanide donor and a delayed reading to cut background.)

The next data set deals with NCl. Briefly: Toxicity test on cells, NCl. The data set is classed as cell-based. The note with it: 48 hours of treatment, Hoechst nuclei staining. The protocol:
as §8, §9

The target of the next data set is mTOR (Homo sapiens, UniProt P42345). In words: mTOR kinase activity, LANCE Ultra TR-FRET. The data set is classed as biochemical. The note with it: truncated mTOR protein, triplicate; read-out: Kinases IC50 mTOR. The protocol: The activity of the mTOR kinase was evaluated by using a purified truncated protein of the amino acids 1-1359 (reference: PV4753 from Invitrogen). The assay of the activity of the enzyme was carried out with the kit LANCE® Ultra which is an enzymatic test based on the detection of a phosphorylated peptide produced during the reaction, by using the fluorescence technique TR-FRET. It took place in a 384-well plate and was able to be divided into two phases: an enzymatic reaction phase and a phase for detecting the phosphorylated peptide.
During the enzymatic reaction phase, the following components were mixed in 10 μL of a same well: 5 μL of each dilution in series of inhibitors taken up in DMSO and then diluted to 1/25 in the reaction buffer (50 mM HEPES pH 7.5, 0.1% Tween-20, 1 mM EGTA, 10 mM MnCl2, 3 mM MgCl2 and 2 mM of DTT), 2.5 μL of a solution containing mTOR at the optimum concentration (concentration defined according to the optimization step described in the operating procedure of the kit) diluted in the same reaction buffer, and finally 2.5 μL of a solution containing 40 μM of ATP and 200 μM non-phosphorylated peptide diluted in the reaction buffer. For each inhibitor concentration, the reaction was conducted in three copies (triplicate). The reaction was then incubated for 120 min at room temperature without any stirring in darkness.
During the phase for detecting the phosphorylated peptide, 5 μL of an EDTA solution (32 mM) diluted in the dilution buffer (ref.: CR97-100 from Perkin Elmer) were injected into each well. After 5 min of incubation with stirring, 5 μL of a phosphorylated anti-peptide antibody solution labeled with europium (8 nM) and diluted in the same dilution buffer was added into each well. After 60 min of incubation at room temperature with stirring (40 rpm) in darkness, the 384-well plates were read in a plate reader Victor V configured for HTRF (Perkin Elmer). […] The inhibition curve was then plotted according to the fluorescence intensity value at 665 nm versus the inhibitor concentration.
The amount of inhibitor required for causing a 50% variation in the intensity of the signal corresponds to the IC50 value of the inhibitor.

For another data set, the system named is Fibroblasts. In words: Toxicity test on cells, Fibroblasts. The class given is cell-based. The note with it: Fibroblast; 48 hours of treatment, Hoechst nuclei staining. The protocol:
as §8, §9

The test system of the next data set is MDA. In words: Toxicity test on cells, MDA. The class given is cell-based. The note with it: 48 hours of treatment, Hoechst nuclei staining. The protocol:
[The procedure below names another cell line; the source lists this cell line under the same test.] as §8, §9

The next data set concerns HUH7. In words: Toxicity test on cells, HUH7. The data set is classed as cell-based. The note with it: Homo sapiens, Huh-7; 48 hours of treatment, Hoechst nuclei staining. The protocol:
as §8, §9

A further data set relates to PC3. Briefly: Toxicity test on cells, PC3. To be noted: Homo sapiens, PC-3; 48 hours of treatment, Hoechst nuclei staining. The class given is cell-based. The protocol: as §8, §9
The test system of a further data set is HCT116. Briefly: Toxicity test on cells, HCT116. The class given is cell-based. The note with it: Homo sapiens, HCT-116; 48 hours of treatment, Hoechst nuclei staining. The protocol: as §8, §9
For a further data set, the system named is HacaT. Briefly: Toxicity test on cells, HacaT. The class given is cell-based. To be noted: Homo sapiens, 48 hours of treatment, Hoechst nuclei staining. The protocol: as §8, §9

PI3Kγ, sequence (P48736 whole entry): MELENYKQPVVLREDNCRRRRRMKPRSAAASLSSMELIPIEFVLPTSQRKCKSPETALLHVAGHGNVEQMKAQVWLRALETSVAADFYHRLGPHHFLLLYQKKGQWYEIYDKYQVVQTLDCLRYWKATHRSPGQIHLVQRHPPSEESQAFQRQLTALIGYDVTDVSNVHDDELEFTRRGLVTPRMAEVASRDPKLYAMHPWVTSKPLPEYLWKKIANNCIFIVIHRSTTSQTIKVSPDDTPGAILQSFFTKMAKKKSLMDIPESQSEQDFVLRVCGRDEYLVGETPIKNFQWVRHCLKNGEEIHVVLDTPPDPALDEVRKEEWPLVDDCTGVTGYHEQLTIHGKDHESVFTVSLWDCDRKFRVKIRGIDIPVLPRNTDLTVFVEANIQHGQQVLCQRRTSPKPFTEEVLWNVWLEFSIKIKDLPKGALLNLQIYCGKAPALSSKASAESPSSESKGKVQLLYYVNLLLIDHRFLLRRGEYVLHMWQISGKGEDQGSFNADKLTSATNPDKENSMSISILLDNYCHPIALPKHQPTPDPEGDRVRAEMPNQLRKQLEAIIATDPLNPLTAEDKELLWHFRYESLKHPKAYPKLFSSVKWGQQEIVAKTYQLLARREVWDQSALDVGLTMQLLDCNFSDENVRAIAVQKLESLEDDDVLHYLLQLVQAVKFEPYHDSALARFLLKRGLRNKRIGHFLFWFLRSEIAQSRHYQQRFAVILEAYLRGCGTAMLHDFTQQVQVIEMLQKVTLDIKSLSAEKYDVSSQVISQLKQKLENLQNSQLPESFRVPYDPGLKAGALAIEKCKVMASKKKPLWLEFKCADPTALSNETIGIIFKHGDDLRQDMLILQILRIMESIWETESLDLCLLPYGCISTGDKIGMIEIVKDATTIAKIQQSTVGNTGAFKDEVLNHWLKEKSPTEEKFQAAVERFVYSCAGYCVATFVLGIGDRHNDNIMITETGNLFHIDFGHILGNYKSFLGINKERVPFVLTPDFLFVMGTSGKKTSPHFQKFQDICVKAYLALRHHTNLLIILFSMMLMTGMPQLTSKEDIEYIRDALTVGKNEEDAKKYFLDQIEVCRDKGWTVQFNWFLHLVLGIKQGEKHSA
PI3Kα, sequence (P42336 whole entry): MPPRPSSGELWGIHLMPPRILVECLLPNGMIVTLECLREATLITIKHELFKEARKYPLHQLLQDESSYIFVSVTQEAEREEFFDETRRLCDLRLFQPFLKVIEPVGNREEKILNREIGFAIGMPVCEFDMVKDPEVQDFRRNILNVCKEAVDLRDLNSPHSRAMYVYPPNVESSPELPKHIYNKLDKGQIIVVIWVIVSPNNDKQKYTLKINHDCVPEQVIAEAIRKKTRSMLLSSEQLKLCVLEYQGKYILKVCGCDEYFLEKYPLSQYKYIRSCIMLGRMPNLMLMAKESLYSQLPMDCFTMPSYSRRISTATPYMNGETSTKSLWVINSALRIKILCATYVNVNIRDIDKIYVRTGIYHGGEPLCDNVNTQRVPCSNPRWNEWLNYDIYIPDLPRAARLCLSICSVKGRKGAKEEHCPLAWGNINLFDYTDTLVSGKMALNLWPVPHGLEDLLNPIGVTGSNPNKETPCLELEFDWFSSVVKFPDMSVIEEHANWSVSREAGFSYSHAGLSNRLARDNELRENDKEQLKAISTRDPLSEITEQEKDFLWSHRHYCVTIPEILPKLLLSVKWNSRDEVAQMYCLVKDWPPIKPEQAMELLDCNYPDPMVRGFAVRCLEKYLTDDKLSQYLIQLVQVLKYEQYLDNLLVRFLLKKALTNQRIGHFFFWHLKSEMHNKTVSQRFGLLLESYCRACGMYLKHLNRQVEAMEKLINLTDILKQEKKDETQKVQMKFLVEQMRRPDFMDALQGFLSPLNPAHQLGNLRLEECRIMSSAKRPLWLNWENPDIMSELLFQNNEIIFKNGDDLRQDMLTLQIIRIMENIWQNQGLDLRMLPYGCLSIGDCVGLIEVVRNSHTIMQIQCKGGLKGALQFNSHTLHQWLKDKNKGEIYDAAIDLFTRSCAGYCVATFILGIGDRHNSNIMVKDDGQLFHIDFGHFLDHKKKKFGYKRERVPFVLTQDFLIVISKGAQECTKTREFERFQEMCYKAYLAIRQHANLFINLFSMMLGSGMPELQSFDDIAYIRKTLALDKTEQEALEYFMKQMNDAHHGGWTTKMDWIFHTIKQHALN
PI3Kα, sequence (P27986 whole entry partner): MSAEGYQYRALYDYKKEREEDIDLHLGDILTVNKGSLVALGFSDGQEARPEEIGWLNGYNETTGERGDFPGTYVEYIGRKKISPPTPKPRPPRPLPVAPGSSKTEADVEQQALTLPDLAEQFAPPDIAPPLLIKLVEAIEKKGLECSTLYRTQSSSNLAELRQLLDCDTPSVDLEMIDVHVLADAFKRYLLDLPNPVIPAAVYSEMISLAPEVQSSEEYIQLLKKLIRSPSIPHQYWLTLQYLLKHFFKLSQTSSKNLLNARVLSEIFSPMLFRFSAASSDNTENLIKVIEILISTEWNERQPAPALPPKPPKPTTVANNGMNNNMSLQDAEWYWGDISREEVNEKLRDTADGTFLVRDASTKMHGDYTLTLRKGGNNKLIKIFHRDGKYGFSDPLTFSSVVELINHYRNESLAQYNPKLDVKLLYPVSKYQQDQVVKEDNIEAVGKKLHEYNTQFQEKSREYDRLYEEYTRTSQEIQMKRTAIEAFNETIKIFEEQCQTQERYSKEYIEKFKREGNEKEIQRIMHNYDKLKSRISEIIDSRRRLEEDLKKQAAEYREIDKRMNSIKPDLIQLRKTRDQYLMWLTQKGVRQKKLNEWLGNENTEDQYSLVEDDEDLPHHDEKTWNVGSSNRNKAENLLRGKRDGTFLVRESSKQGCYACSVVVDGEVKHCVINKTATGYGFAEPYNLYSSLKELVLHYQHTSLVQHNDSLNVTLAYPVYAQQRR
PI3Kδ, sequence (O00329 whole entry): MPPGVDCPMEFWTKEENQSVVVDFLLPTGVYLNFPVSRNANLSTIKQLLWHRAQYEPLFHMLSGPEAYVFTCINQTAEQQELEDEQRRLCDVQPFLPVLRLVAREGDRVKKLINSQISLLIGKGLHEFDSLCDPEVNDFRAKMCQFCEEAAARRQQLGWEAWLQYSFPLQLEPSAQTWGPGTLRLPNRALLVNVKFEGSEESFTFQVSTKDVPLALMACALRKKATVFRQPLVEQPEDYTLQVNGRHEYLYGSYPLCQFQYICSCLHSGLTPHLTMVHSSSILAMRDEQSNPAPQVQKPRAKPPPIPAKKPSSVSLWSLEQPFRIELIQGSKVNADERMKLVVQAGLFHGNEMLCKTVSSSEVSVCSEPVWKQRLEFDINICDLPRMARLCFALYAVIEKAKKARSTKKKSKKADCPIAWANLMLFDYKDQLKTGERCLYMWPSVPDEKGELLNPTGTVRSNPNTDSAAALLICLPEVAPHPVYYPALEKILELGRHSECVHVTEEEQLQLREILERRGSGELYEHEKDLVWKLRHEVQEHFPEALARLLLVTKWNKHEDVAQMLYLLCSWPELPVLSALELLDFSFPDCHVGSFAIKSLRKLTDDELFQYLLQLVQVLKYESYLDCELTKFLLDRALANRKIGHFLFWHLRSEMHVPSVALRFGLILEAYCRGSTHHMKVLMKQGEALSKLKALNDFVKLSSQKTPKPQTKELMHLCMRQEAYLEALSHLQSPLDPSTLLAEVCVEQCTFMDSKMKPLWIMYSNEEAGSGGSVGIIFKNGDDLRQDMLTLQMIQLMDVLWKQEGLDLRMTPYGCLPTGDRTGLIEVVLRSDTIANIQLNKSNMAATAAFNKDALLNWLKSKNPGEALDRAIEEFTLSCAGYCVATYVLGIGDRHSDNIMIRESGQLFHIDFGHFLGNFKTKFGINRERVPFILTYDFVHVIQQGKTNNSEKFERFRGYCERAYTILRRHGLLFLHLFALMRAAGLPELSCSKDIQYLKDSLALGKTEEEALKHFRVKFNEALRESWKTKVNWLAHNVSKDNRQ
PI3Kδ, sequence (P27986 whole entry partner): as the sequence (P27986 whole entry partner) above

The compound `O=[N+]([O-])c1ccc(-c2nc(N3CCOCC3)c3ncc(Cl)cc3n2)cc1` [Compound 10, 4-(7-chloro-2-(4-nitrophenyl)pyrido[3,2-d]pyrimidin-4-yl)morpholine] gave a melting point of 200 °C.

Take `OCc1cccc(-c2nc(N3CCOCC3)c3ncc(Cl)cc3n2)c1` [Compound 8, (3-(7-Chloro-4-morpholinopyrido[3,2-d]pyrimidin-2-yl)phenyl)methanol]: the melting point turned out to be 157 °C. Moreover, the IC50 at PI3Kα was determined as 0.032 µM. For the same compound, the IC50 on PI3Kδ amounted to 0.016 µM. Moreover, the concentration for half-maximal inhibition (IC50) in the data set with CaCo2 was 3 µM. Further, the concentration for half-maximal inhibition (IC50) on PI3Kγ is 0.431 µM. In addition, in the data set with NCl, the IC50 was > 25 µM. The half-maximal inhibitory concentration (IC50) at mTOR was > 50 µM. The same compound yielded an IC50 with Fibroblasts of 2 µM. For the same compound, the IC50 in the data set with MDA came out at 20 µM. The half-maximal inhibitory concentration (IC50) in the data set on HUH7 was found to be 25 µM. The compound further had a half-maximal inhibitory concentration (IC50) in the data set on PC3 of 20 µM. This compound also yielded a 50% inhibitory concentration (IC50) in the data set with HCT116 of 5 µM.

`Oc1ccccc1-c1nc(N2CCOCC2)c2ncc(Cl)cc2n1` [Compound 5, 2-(7-Chloro-4-morpholinopyrido[3,2-d]pyrimidin-2-yl)phenol] registered a melting point of 212 °C. Further, the IC50 in the data set on CaCo2 was > 25 µM. Besides, the IC50 in the data set on NCl was > 25 µM. Moreover, the half-inhibitory concentration (IC50) with Fibroblasts was > 25 µM. Also, the half-inhibitory concentration (IC50) in the data set with MDA was > 25 µM. For the same compound, the half-inhibitory concentration (IC50) with HUH7 is > 25 µM. The IC50 with PC3 is > 25 µM. The IC50 in the data set with HCT116 is > 25 µM.

On to `Oc1cccc(-c2nc(N3CCOCC3)c3ncc(CN4CCOCC4)cc3n2)c1` [Compound 29, 3-(4-morpholino-7-(morpholinomethyl)pyrido[3,2-d]pyrimidin-2-yl) phenol hydrochloride], for which the concentration for half-maximal inhibition (IC50) at PI3Kα is 0.043 µM; on PI3Kδ, 0.041 µM; in the data set on CaCo2 it was 3 µM; at PI3Kγ, 1.3 µM; with HacaT, 8 µM; in the data set on NCl, > 25 µM. The IC50 was 0.286 µM at mTOR; > 25 µM in the data set with Fibroblasts; > 25 µM with MDA; > 25 µM in the data set on HUH7; 2 µM in the data set with PC3; 5 µM in the data set with HCT116.

`[N-]=[N+]=NCc1cnc2c(N3CCOCC3)nc(-c3cccc(O)c3)nc2c1` [Compound 39, 3-(7-(azidomethyl)-4-morpholinopyrido[3,2-d]pyrimidin-2-yl)phenol]: the IC50 at PI3Kα was 0.01 µM; on PI3Kδ, 0.022 µM; with CaCo2 it was 2 µM; at PI3Kγ, 0.043 µM; in the data set with HacaT, 4 µM; in the data set on NCl, 3 µM. The IC50 at mTOR is 0.055 µM; with Fibroblasts it was > 25 µM; with MDA, > 25 µM; with HUH7, 4 µM; with PC3 it was 3 µM; with HCT116, 5 µM.

For the compound `O=C(Nc1ccc(-c2nc(N3CCOCC3)c3ncc(CN4CCOCC4)cc3n2)cc1)Nc1cccc(CO)c1` [Compound 80, 1-[3-(hydroxymethyl)phenyl]-3-{4-[4-(morpholin-4-yl)-7-(morpholin-4-ylmethyl)pyrido[3,2-d]pyrimidin-2-yl]phenyl}urea], the melting point lay in the range of 200 to 202 °C.

For the compound `Oc1cccc(-c2nc(N3CCOCC3)c3ncc(Cl)cc3n2)c1` [Compound 6, 3-(7-Chloro-4-morpholinopyrido[3,2-d]pyrimidin-2-yl)phenol], the IC50 on PI3Kα is 0.012 µM; at PI3Kδ, 0.01 µM; in the data set with CaCo2, 8 µM; on PI3Kγ, 0.273 µM; in the data set with HacaT it was 4 µM; with NCl, > 25 µM. Moreover, the half-maximal inhibitory concentration (IC50) on mTOR is 0.183 µM; in the data set on Fibroblasts it was > 25 µM; in the data set on MDA, > 25 µM; in the data set on HUH7 it was 0.8 µM; in the data set on PC3 it was > 25 µM; with HCT116, 9 µM.

For the compound `Oc1cccc(-c2nc(N3CCOCC3)nc3cc(Cl)cnc23)c1` [Compound 51, 3-(7-chloro-2-morpholinopyrido[3,2-d]pyrimidin-4-yl)phenol], the IC50 was 0.546 µM at PI3Kα; 3.9 µM at PI3Kδ; 20 µM with CaCo2; 5 µM on PI3Kγ; > 25 µM in the data set with HacaT; > 25 µM in the data set with NCl. Besides, the IC50 is 5.2 µM at mTOR; > 25 µM in the data set with Fibroblasts; > 25 µM in the data set on MDA; > 25 µM with HUH7; > 25 µM in the data set with PC3; > 25 µM in the data set on HCT116.
